What was measured:
Conditions in all cases: concentration not given here
[1] = molecular target: Translocator protein (Homo sapiens) (UniProt P30536); test: Binding affinity to PBR (unknown origin) assessed as inhibition of radioligand binding by radioligand competition binding assay
[2] = molecular target: Sodium-dependent dopamine transporter (Homo sapiens) (UniProt Q01959); test: Binding affinity to DAT (unknown origin) assessed as inhibition of radioligand binding by radioligand competition binding assay
[3] = molecular target: Sodium-dependent noradrenaline transporter (Homo sapiens) (UniProt P23975); test: Binding affinity to NET (unknown origin) assessed as inhibition of radioligand binding by radioligand competition binding assay
[4] = molecular target: Kappa-type opioid receptor (Homo sapiens) (UniProt P41145); test: Binding affinity to KOR (unknown origin) assessed as inhibition of radioligand binding by radioligand competition binding assay
[5] = molecular target: Mu-type opioid receptor (Homo sapiens) (UniProt P35372); test: Binding affinity to MOR (unknown origin) assessed as inhibition of radioligand binding by radioligand competition binding assay
[6] = molecular target: Sigma non-opioid intracellular receptor 1 (Homo sapiens) (UniProt Q99720); test: Binding affinity to sigma1 receptor (unknown origin) assessed as inhibition of radioligand binding by radioligand competition binding assay
[7] = species on record: Homo sapiens; test: Binding affinity to sigma2 receptor (unknown origin) assessed as inhibition of radioligand binding by radioligand competition binding assay
[8] = molecular target: Delta-type opioid receptor (Homo sapiens) (UniProt P41143); test: Binding affinity to DOR (unknown origin) assessed as inhibition of radioligand binding by radioligand competition binding assay
[9] = molecular target: Muscarinic acetylcholine receptor M5 (Homo sapiens) (UniProt P08912); test: Binding affinity to muscarinic M5 receptor (unknown origin) assessed as inhibition of radioligand binding by radioligand competition binding assay
[10] = species on record: Homo sapiens; test: Binding affinity to GABAA receptor (unknown origin) assessed as inhibition of radioligand binding by radioligand competition binding assay
[11] = molecular target: Muscarinic acetylcholine receptor M3 (Homo sapiens) (UniProt P20309); test: Binding affinity to muscarinic M3 receptor (unknown origin) assessed as inhibition of radioligand binding by radioligand competition binding assay
[12] = molecular target: Muscarinic acetylcholine receptor M4 (Homo sapiens) (UniProt P08173); test: Binding affinity to muscarinic M4 receptor (unknown origin) assessed as inhibition of radioligand binding by radioligand competition binding assay
[13] = molecular target: Muscarinic acetylcholine receptor M1 (Homo sapiens) (UniProt P11229); test: Binding affinity to muscarinic M1 receptor (unknown origin) assessed as inhibition of radioligand binding by radioligand competition binding assay
[14] = molecular target: Muscarinic acetylcholine receptor M2 (Homo sapiens) (UniProt P08172); test: Binding affinity to muscarinic M2 receptor (unknown origin) assessed as inhibition of radioligand binding by radioligand competition binding assay
[15] = molecular target: Histamine H2 receptor (Homo sapiens) (UniProt P25021); test: Binding affinity to histamine H2 receptor (unknown origin) assessed as inhibition of radioligand binding by radioligand competition binding assay
[16] = molecular target: Histamine H3 receptor (Homo sapiens) (UniProt Q9Y5N1); test: Binding affinity to histamine H3 receptor (unknown origin) assessed as inhibition of radioligand binding by radioligand competition binding assay
[17] = molecular target: Histamine H4 receptor (Homo sapiens) (UniProt Q9H3N8); test: Binding affinity to histamine H4 receptor (unknown origin) assessed as inhibition of radioligand binding by radioligand competition binding assay
[18] = molecular target: D(4) dopamine receptor (Homo sapiens) (UniProt P21917); test: Binding affinity to dopamine D4 receptor (unknown origin) assessed as inhibition of radioligand binding by radioligand competition binding assay
[19] = molecular target: D(1B) dopamine receptor (Homo sapiens) (UniProt P21918); test: Binding affinity to dopamine D5 receptor (unknown origin) assessed as inhibition of radioligand binding by radioligand competition binding assay
[20] = molecular target: Histamine H1 receptor (Homo sapiens) (UniProt P35367); test: Binding affinity to histamine H1 receptor (unknown origin) assessed as inhibition of radioligand binding by radioligand competition binding assay
[21] = molecular target: D(1A) dopamine receptor (Homo sapiens) (UniProt P21728); test: Binding affinity to dopamine D1 receptor (unknown origin) assessed as inhibition of radioligand binding by radioligand competition binding assay
[22] = molecular target: D(2) dopamine receptor (Homo sapiens) (UniProt P14416); test: Binding affinity to dopamine D2 receptor (unknown origin) assessed as inhibition of radioligand binding by radioligand competition binding assay
[23] = molecular target: D(3) dopamine receptor (Homo sapiens) (UniProt P35462); test: Binding affinity to dopamine D3 receptor (unknown origin) assessed as inhibition of radioligand binding by radioligand competition binding assay
[24] = molecular target: Alpha-1D adrenergic receptor (Homo sapiens) (UniProt P25100); test: Binding affinity to andrenergic alpha1D receptor (unknown origin) assessed as inhibition of radioligand binding by radioligand competition binding assay
[25] = molecular target: Alpha-2C adrenergic receptor (Homo sapiens) (UniProt P18825); test: Binding affinity to andrenergic alpha2C receptor (unknown origin) assessed as inhibition of radioligand binding by radioligand competition binding assay
[26] = molecular target: Alpha-1A adrenergic receptor (Homo sapiens) (UniProt P35348); test: Binding affinity to andrenergic alpha1A receptor (unknown origin) assessed as inhibition of radioligand binding by radioligand competition binding assay
[27] = molecular target: Alpha-1B adrenergic receptor (Homo sapiens) (UniProt P35368); test: Binding affinity to andrenergic alpha1B receptor (unknown origin) assessed as inhibition of radioligand binding by radioligand competition binding assay
[28] = molecular target: 5-hydroxytryptamine receptor 3A (Homo sapiens) (UniProt P46098); test: Binding affinity to 5-HT3 receptor (unknown origin) assessed as inhibition of radioligand binding by radioligand competition binding assay
[29] = molecular target: 5-hydroxytryptamine receptor 5A (Homo sapiens) (UniProt P47898); test: Binding affinity to 5-HT5A receptor (unknown origin) assessed as inhibition of radioligand binding by radioligand competition binding assay
[30] = molecular target: 5-hydroxytryptamine receptor 1E (Homo sapiens) (UniProt P28566); test: Binding affinity to 5-HT1E receptor (unknown origin) assessed as inhibition of radioligand binding by radioligand competition binding assay
[31] = molecular target: 5-hydroxytryptamine receptor 2A (Homo sapiens) (UniProt P28223); test: Binding affinity to 5-HT2A receptor (unknown origin) assessed as inhibition of radioligand binding by radioligand competition binding assay
[32] = molecular target: 5-hydroxytryptamine receptor 2C (Homo sapiens) (UniProt P28335); test: Binding affinity to 5-HT2C receptor (unknown origin) assessed as inhibition of radioligand binding by radioligand competition binding assay

Measured: inhibition

COc1cc2c3c(c1OC)-c1ccccc1[C@@H](O)[C@@H]3NCC2
< 50%: [1] | [2] | [3] | [4] | [5] | [6] | [7] | [8] | [9] | [10] | [11] | [12] | [13] | [14] | [15] | [16] | [17] | [18] | [19] | [20] | [21] | [22] | [23] | [24] | [25] | [26] | [27] | [28] | [29] | [30] | [31] | [32]

From ChEMBL document CHEMBL4257493, “Discovery of 7-hydroxyaporphines as conformationally restricted ligands for beta-1 and beta-2 adrenergic receptors” (Medchemcomm, 2018)
